“And” between values parts separate entries of the source, which are not always exact repeats. Equal values may be shown once.
Experiments:
[1] = test system: complex I (NADH dehydrogenase); assay: Complex I (NADH dehydrogenase) activity, spectrophotometric; format: biochemical; settings: 100 μM drug, pig brain mitochondria, mean ± SD
Procedure: (§1) Pig brains were obtained from a slaughterhouse. Mitochondrial fraction isolation and purification from brain cortex were performed as previously described. Briefly, grey matter from pig brains was homogenized and crude mitochondrial fraction was isolated and then centrifuged on the sucrose gradient to obtain purified mitochondrial fraction. The freshly purified mitochondria were kept on ice until the assays were performed and were used for measurements of the mitochondrial oxygen consumption rate, measurements of ATP and ROS formation. Frozen mitochondria (stored at −70 °C) were used for the following enzyme activity measurements: ETC complexes, citrate synthase (CS) and malate dehydrogenase (MDH) activity.
(§2) Ultrasonication and incubation of mitochondria with the tested drugs for 30 min at 30 °C was performed before measurement with a corresponding drug-free control (DMSO) for every measurement. Mitochondrial enzymes activities were determined spectrophotometrically as absorbance using a GENESYS 180 UV-Vis Spectrophotometer (Thermo Fisher Scientific, Waltham, MA, USA).
The reaction mixture consisted of KH2PO4, MgCl2 and KCN and the reaction was started by adding decylubiquinone and NADH. The rotenone-sensitive NADH oxidation reaction was measured at 340 nm for 5 min. The final protein concentration was 150 µg/mL and final drugs concentrations 2.5, 5, 10, 50 and 100 µM. Drug-free control (DMSO) was used as a control for each measurement.

[2] = test system: complex IV (cytochrome c oxidase); assay: Complex IV (cytochrome c oxidase) activity, spectrophotometric; format: biochemical; settings: pig brain mitochondria, mean ± SD
Procedure: as §1, §2
The medium consisted of KH2PO4, and the reaction was initiated by reduced cyt c. The decrease in absorbance was measured at 550 nm for 3 min. The final protein concentration was 10 µg/mL and final drugs concentrations 10, 50 and 100 µM. Drug-free control (DMSO) was used as a control for each measurement.

[3] = molecular target: T1, malate dehydrogenase (MDH) (Sus scrofa, UniProt P00346); assay: Malate dehydrogenase activity; format: biochemical, pig; settings: mean, N=3
T1 construct: Frozen mitochondria (stored at −70 °C) were used for the following enzyme activity measurements: ETC complexes, citrate synthase (CS) and malate dehydrogenase (MDH) activity; from tissue; host or cells: pig brain cortex, purified mitochondrial fraction (frozen, sonicated)
T1 sequence (P00346 25-338): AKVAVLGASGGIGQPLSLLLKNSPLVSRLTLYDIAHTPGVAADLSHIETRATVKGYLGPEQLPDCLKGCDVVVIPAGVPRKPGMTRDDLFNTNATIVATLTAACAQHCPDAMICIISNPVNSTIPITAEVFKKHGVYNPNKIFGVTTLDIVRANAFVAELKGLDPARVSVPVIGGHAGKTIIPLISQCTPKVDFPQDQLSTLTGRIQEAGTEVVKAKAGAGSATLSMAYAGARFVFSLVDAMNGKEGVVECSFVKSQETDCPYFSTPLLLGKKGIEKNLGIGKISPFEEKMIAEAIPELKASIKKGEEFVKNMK
Procedure: as §1, §2
The conversion of oxaloacetate to malate was used to measure the activity, and it was measured at 340 nm for 3 min. The reaction was initiated by adding oxaloacetate and nicotinamide adenine dinucleotide (NADH). […]

citrate synthase (CS) = molecular target: T2, citrate synthase (CS) (Sus scrofa, UniProt P00889); assay: Citrate synthase activity; format: biochemical, pig; settings: mean, N=3
T2 construct: Frozen mitochondria (stored at −70 °C) were used for the following enzyme activity measurements: ETC complexes, citrate synthase (CS) and malate dehydrogenase (MDH) activity; from tissue; host or cells: pig brain cortex, purified mitochondrial fraction (frozen, sonicated)
T2 sequence (P00889 28-464): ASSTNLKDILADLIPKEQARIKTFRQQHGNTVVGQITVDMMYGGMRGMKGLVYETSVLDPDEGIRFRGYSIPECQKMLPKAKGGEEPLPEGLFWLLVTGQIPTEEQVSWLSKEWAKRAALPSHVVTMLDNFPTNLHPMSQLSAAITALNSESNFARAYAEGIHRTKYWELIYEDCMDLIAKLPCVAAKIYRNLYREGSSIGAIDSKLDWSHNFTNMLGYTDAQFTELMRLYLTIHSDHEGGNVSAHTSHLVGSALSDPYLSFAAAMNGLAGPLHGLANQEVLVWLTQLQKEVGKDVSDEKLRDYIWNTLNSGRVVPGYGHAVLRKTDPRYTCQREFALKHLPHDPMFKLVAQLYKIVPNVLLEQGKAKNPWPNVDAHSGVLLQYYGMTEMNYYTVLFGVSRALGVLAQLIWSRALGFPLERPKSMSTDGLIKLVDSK
Procedure: as §1, §2
The reaction mixture consisted of Triton, Tris, 5,5′-dithiobis-(2-nitrobenzoic) acid and acetyl coenzyme A. The reaction was started by adding oxaloacetate and the CS activity was measured by detecting the color change of 5,5′-dithiobis-(2-nitrobenzoic) acid at 412 nm with a duration of 3 min. […]

[4] = test system: total H2O2 content, pig brain mitochondria; assay: Hydrogen peroxide production, Amplex Red; format: biochemical; settings: for total H2O2 content (relative to control = 100%): mean ± SD
Procedure: as §1
Hydrogen peroxide formation was determined using an Amplex Red Hydrogen Peroxide/Peroxidase Assay Kit. The reaction mixture consisted of 27 mM HEPES (pH 7.4), 114 mM sucrose, 100 mM KCl, 1.3 mM K2HPO4, 5 mM malate, 5 mM pyruvate, 1 µM rotenone, 10 mM succinate, 0.75 mM MgCl2, […], 15 µM Amplex Red and horseradish peroxidase 0.09 U/ML. […] The reaction was stopped by the addition of antimycin A. The standard curve for hydrogen peroxide was prepared using H2O2 standard.

SMILES | complex I activity (relative to control = 100%) [1] | complex IV activity (relative to control = 100%) ([2]; 10 μM drug) | complex IV activity (relative to control = 100%) ([2]; 50 μM drug) | complex IV activity (relative to control = 100%) ([2]; 100 μM drug) | MDH (% of Control) ([3]; 10 μM drug) | MDH (% of Control) ([3]; 100 μM drug) | CS (% of Control) (citrate synthase (CS); 10 μM drug) | CS (% of Control) (citrate synthase (CS); 100 μM drug) | total H2O2 content (relative to control = 100%) ([4]; 10 μM drug) | effect on total H2O2 production (in words) ([4]; 10, 50 and 100 µM) | complex I activity (relative to control = 100%) ([1]; listed as VOR) | total H2O2 content (relative to control = 100%) ([4]; 50 μM drug) | total H2O2 content (relative to control = 100%) ([4]; 100 μM drug)
COc1ccc2cccc(CCNC(C)=O)c2c1 [agomelatine] | 73.7 ± 5.1% | 45.0 ± 3.6% | 17.9 ± 3.4% | 12.8 ± 4.1% | 101.7 % of Control | 101.0 % of Control | 108.8 % of Control | 95.7 % of Control | 130.1 ± 2.7% | – | – | – | –
CNC1(c2ccccc2Cl)CCCCC1=O (stereo not drawn) [ketamine] | 91.2 ± 6.6% | – | – | 3.9 ± 3.0% | 97.4 % of Control | 101.7 % of Control | 107.3 % of Control | 97.4 % of Control | – | no statistically significant effect | – | – | –
Cc1ccc(Sc2ccccc2N2CCNCC2)c(C)c1 [vortioxetine] | – | – | – | 9.3 ± 3.8% | 106.9 % of Control | 100.2 % of Control | 109.3 % of Control | * 96.9 % of Control | – | – | 5.5 ± 1.8% and 5.5% | 124.5 ± 2.5% | 85.4 ± 5.0%

Source: paper PMC9697131, “Agomelatine, Ketamine and Vortioxetine Attenuate Energy Cell Metabolism—In Vitro Study” (International Journal of Molecular Sciences, 2022)
